Laboratory results from patent US9475775B2, “Benzazepine dicarboxamide compounds” (Hoffmann-La Roche Inc., priority 2015, dated 2016).

What was measured:
human TLR7 = human TLR7 (Homo sapiens (Human), UniProt Q9NYK1); assay: HEK-Blue human TLR7 cells, NF-κB SEAP reporter assay; assay type: cell-based; details: stimulation for 20 hours
From the text: (§1) For TLR8 and TLR7 activity testing, HEK-Blue human TLR8 or TLR7 cells (Invivogen, San Diego, Calif., USA) are used, respectively. These cells are designed for studying the stimulation of human TLR8 or TLR7 by monitoring the activation of NF-κB. A SEAP (secreted embryonic alkaline phosphatase) reporter gene is placed under the control of the IFN-b minimal promoter fused to five NF-κB and AP-1-binding sites. Therefore the reporter expression is regulated by the NF-κB promoter upon stimulation of human TLR8 or TLR7 for 20 hours. The cell culture supernatant SEAP reporter activity was determined using Quanti Blue kit (Invivogen, San Diego, Ca, USA) at a wavelength of 640 nm, a detection medium that turns purple/blue in the presence of alkaline phosphatase. EC50 values were determined using Activity Base analysis (ID Business Solution, Limited).

human TLR8 = human TLR8 (Homo sapiens (Human), UniProt Q9NR97); assay: HEK-Blue human TLR8 cells, NF-κB SEAP reporter assay; assay type: cell-based; details: stimulation for 20 hours
From the text: as §1

human TLR8, sequence (Q9NR97 27-1041): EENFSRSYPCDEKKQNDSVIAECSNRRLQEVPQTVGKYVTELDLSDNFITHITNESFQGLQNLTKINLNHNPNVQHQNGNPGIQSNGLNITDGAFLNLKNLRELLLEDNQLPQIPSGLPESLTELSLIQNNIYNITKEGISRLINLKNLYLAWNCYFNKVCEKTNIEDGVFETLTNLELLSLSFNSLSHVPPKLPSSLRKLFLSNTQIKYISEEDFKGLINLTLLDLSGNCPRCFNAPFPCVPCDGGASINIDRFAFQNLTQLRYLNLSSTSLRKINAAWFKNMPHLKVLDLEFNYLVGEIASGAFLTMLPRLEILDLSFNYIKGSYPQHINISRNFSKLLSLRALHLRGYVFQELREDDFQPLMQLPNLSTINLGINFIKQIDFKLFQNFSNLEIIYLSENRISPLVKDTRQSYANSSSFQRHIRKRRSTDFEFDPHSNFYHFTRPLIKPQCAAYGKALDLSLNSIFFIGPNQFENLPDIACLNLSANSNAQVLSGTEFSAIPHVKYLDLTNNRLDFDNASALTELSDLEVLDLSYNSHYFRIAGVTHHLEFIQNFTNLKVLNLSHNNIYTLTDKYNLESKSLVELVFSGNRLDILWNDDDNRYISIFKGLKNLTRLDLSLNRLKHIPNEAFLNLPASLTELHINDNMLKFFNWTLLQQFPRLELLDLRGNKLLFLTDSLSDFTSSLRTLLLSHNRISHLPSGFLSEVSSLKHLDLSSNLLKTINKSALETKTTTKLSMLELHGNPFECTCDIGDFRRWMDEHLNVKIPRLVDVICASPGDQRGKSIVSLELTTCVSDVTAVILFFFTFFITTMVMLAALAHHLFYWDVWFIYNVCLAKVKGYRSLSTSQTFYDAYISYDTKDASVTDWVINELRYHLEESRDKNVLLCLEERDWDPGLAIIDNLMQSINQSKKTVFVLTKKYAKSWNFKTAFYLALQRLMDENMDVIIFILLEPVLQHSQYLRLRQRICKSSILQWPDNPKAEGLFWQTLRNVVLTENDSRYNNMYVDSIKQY
human TLR7, sequence (Q9NYK1 27-1049): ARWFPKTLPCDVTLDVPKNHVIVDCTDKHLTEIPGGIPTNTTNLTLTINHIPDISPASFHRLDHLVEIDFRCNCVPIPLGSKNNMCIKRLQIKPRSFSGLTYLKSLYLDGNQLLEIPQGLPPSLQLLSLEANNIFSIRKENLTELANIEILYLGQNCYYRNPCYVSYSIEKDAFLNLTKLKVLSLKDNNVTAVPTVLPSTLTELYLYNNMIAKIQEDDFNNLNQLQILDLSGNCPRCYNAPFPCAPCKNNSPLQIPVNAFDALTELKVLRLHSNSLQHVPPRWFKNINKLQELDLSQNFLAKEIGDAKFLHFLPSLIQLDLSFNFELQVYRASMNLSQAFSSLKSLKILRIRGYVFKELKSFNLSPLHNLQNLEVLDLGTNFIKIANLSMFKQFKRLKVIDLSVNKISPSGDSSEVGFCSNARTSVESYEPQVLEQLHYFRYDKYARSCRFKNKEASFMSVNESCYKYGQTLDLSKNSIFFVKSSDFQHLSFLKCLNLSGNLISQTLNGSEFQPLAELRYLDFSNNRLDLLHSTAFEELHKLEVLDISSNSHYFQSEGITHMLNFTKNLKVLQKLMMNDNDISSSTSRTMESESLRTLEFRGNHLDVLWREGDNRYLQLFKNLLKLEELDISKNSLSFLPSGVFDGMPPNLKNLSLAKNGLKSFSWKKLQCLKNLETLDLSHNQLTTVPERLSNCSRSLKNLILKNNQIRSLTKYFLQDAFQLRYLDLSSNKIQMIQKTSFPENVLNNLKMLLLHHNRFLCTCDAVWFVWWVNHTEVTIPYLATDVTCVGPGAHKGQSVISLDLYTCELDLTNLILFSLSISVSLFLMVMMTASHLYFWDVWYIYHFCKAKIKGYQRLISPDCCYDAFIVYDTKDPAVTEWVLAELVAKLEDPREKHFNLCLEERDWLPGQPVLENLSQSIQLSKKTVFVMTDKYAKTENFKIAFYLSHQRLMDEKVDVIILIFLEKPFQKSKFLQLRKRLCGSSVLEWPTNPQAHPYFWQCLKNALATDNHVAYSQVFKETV

Structure (SMILES) | EC50 (human TLR7) [nM] | EC50 (human TLR8) [nM]
CCCN(CCC)C(=O)C1=Cc2ccc(C(=O)Nc3cccc(CN)c3)cc2N=C(N)C1 [Example 36, 2-Amino-N8-[3-(aminomethyl)phenyl]-N4,N4-dipropyl-3H-1-benzazepine-4,8-dicarboxamide] | > 100000 | 31
CCCN(CCC)C(=O)C1=Cc2ccc(C(=O)Nc3ccn(C)n3)cc2N=C(N)C1 [Example 37, 2-Amino-N8-(1-methylpyrazol-3-yl)-N4,N4-dipropyl-3H-1-benzazepine-4,8-dicarboxamide] | 38000 | 23
CCCN(CCC)C(=O)C1=Cc2ccc(C(=O)Nc3ncco3)cc2N=C(N)C1 [Example 38, 2-Amino-N8-oxazol-2-yl-N4,N4-dipropyl-3H-1-benzazepine-4,8-dicarboxamide] | 45000 | 29
CCCN(CCCO)C(=O)C1=Cc2ccc(C(=O)Nc3cccnc3)cc2N=C(N)C1 [Example 39, 2-Amino-N4-(3-hydroxypropyl)-N4-propyl-N8-(3-pyridyl)-3H-1-benzazepine-4,8-dicarboxamide] | > 100000 | 29
CCCN(CCC)C(=O)C1=Cc2ccc(C(=O)Nc3cncc(OC)c3)cc2N=C(N)C1 [Example 40, 2-Amino-N8-(5-methoxy-3-pyridyl)-N4,N4-dipropyl-3H-1-benzazepine-4,8-dicarboxamide] | > 100000 | 1
C#CCN(CCC)C(=O)C1=Cc2ccc(C(=O)Nc3cccc(C)c3)cc2N=C(N)C1 [Example 41, 2-Amino-N8-(m-tolyl)-N4-propyl-N4-prop-2-ynyl-3H-1-benzazepine-4,8-dicarboxamide] | > 100000 | 6
CCCCN(CCCC)C(=O)C1=Cc2ccc(C(=O)Nc3cccc(C)c3)cc2N=C(N)C1 [Example 42, 2-Amino-N4,N4-dibutyl-N8-(m-tolyl)-3H-1-benzazepine-4,8-dicarboxamide] | > 100000 | 17
CCCN(CCC)C(=O)C1=Cc2ccc(C(=O)Nc3cc(C)cc(CN)c3)cc2N=C(N)C1 [Example 43, 2-Amino-N8-[3-(aminomethyl)-5-methyl-phenyl]-N4,N4-dipropyl-3H-1-benzazepine-4,8-dicarboxamide] | 61000 | 15
CCCN(CCC)C(=O)C1=Cc2ccc(C(=O)Nc3cncc(OCC)c3)cc2N=C(N)C1 [Example 44, 2-Amino-N8-(5-ethoxy-3-pyridyl)-N4,N4-dipropyl-3H-1-benzazepine-4,8-dicarboxamide] | 12000 | 1
CCCN(CCC)C(=O)C1=Cc2ccc(C(=O)Nc3cccc(OCCOCCN)c3)cc2N=C(N)C1 [Example 45, 2-Amino-N8-[3-[2-(2-aminoethoxy)ethoxy]phenyl]-N4,N4-dipropyl-3H-1-benzazepine-4,8-dicarboxamide] | > 100000 | 26
CCCN(CCC)C(=O)C1=Cc2ccc(C(=O)Nc3cncc(OCCCCCN)c3)cc2N=C(N)C1 [Example 46, 2-Amino-N8-[5-(5-aminopentoxy)-3-pyridyl]-N4,N4-dipropyl-3H-1-benzazepine-4,8-dicarboxamide] | > 100000 | 10
CCCN(CCC)C(=O)C1=Cc2ccc(C(=O)Nc3cccc(COCCOCCN)c3)cc2N=C(N)C1 [Example 47, 2-Amino-N8-[3-[2-(2-aminoethoxy)ethoxymethyl]phenyl]-N4,N4-dipropyl-3H-1-benzazepine-4,8-dicarboxamide] | > 100000 | 6
CCCN(CCC)C(=O)C1=Cc2ccc(C(=O)Nc3cncc(C#CCN)c3)cc2N=C(N)C1 [Example 48, 2-Amino-N8-[5-(3-aminoprop-1-ynyl)-3-pyridyl]-N4,N4-dipropyl-3H-1-benzazepine-4,8-dicarboxamide] | > 100000 | 16
CCCN(CCCOCCOCCN)C(=O)C1=Cc2ccc(C(=O)Nc3cccc(C)c3)cc2N=C(N)C1 [Example 49, 2-amino-N4-[3-[2-(2-aminoethoxy)ethoxy]propyl]-N8-(m-tolyl)-N4-propyl-3H-1-benzazepine-4,8-dicarboxamide] | > 100000 | 31
CCCN(CCC)C(=O)C1=Cc2ccc(C(=O)Nc3cncc(CCCN)c3)cc2N=C(N)C1 [Example 50, 2-Amino-N8-[5-(3-aminopropyl)-3-pyridyl]-N4,N4-dipropyl-3H-1-benzazepine-4,8-dicarboxamide] | > 100000 | 10
CCCN(CCC(F)(F)F)C(=O)C1=Cc2ccc(C(=O)Nc3cccc(C)c3)cc2N=C(N)C1 [Example 51, 2-Amino-N8-(m-tolyl)-N4-propyl-N4-(3,3,3-trifluoropropyl)-3H-1-benzazepine-4,8-dicarboxamide] | 22000 | 2
CCCN(CCC)C(=O)C1=Cc2ccc(C(=O)Nc3cncc(/C=C\CN)c3)cc2N=C(N)C1 [Example 52, 2-Amino-N8-[5-[(Z)-3-aminoprop-1-enyl]-3-pyridyl]-N4,N4-dipropyl-3H-1-benzazepine-4,8-dicarboxamide] | > 100000 | 6
CCCN(CC1CC1)C(=O)C1=Cc2ccc(C(=O)Nc3cccc(C)c3)cc2N=C(N)C1 [Example 53, 2-Amino-N4-(cyclopropylmethyl)-N8-(m-tolyl)-N4-propyl-3H-1-benzazepine-4,8-dicarboxamide] | 20000 | 2
CCCN(CCC)C(=O)C1=Cc2ccc(C(=O)Nc3cccc(CCN)c3)cc2N=C(N)C1 [Example 54, 2-Amino-N8-[3-(2-aminoethyl)phenyl]-N4,N4-dipropyl-3H-1-benzazepine-4,8-dicarboxamide] | > 100000 | 3
CCCN(CC(C)C)C(=O)C1=Cc2ccc(C(=O)Nc3cccc(C)c3)cc2N=C(N)C1 [Example 55, 2-Amino-N4-isobutyl-N8-(m-tolyl)-N4-propyl-3H-1-benzazepine-4,8-dicarboxamide] | > 100000 | 2
CCCN(CCCOCCCN)C(=O)C1=Cc2ccc(C(=O)Nc3cccc(C)c3)cc2N=C(N)C1 [Example 56, 2-Amino-N4-[3-(3-aminopropoxy)propyl]-N8-(m-tolyl)-N4-propyl-3H-1-benzazepine-4,8-dicarboxamide] | > 100000 | 10
CCCN(CCC)C(=O)C1=Cc2ccc(C(=O)Nc3cccc(CCCCCN)c3)cc2N=C(N)C1 [Example 57, 2-Amino-N8-[3-(5-aminopentyl)phenyl]-N4,N4-dipropyl-3H-1-benzazepine-4,8-dicarboxamide] | > 100000 | 25
CCCN(CCC)C(=O)C1=Cc2ccc(C(=O)Nc3ccc(CCCCCN)cc3)cc2N=C(N)C1 [Example 58, 2-Amino-N8-[4-(5-aminopentyl)phenyl]-N4,N4-dipropyl-3H-1-benzazepine-4,8-dicarboxamide] | > 100000 | 15
CCCN(CCC)C(=O)C1=Cc2ccc(C(=O)Nc3cccc(CCCN)c3)cc2N=C(N)C1 [Example 59, 2-Amino-N8-[3-(3-aminopropyl)phenyl]-N4,N4-dipropyl-3H-1-benzazepine-4,8-dicarboxamide] | > 100000 | 3
CCCN(Cc1ccc(CN)cc1)C(=O)C1=Cc2ccc(C(=O)Nc3cccc(C)c3)cc2N=C(N)C1 [Example 60, 2-Amino-N4-[[4-(aminomethyl)phenyl]methyl]-N8-(m-tolyl)-N4-propyl-3H-1-benzazepine-4,8-dicarboxamide] | > 100000 | 27
